PubChem BioAssay (NCI)
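Dose response: 5 concentrations. Exposure: 48 h. Format: 96-well plates. Endpoint: linear interpolation; highest concentration if not reached. Abbreviation: GI50, concentration required for 50% inhibition of growth. The concentration for full growth arrest is given as TGI.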

What was measured:
Experiment in all cases: NCI anticancer screen, dose series, 48 h
[1] = tested on: NCI-H226 lung
[2] = tested on: MDA-MB-231 breast
[3] = tested on: NCI-H460 lung
[4] = tested on: COLO 205 colon
[5] = tested on: MCF7 breast
[6] = tested on: RPMI-8226 leukemia
[7] = tested on: HCT-15 colon
[8] = tested on: SR leukemia
[9] = tested on: SK-MEL-2 melanoma
[10] = tested on: SW-620 colon

SMILES	GI50 [1]	TGI [1]	GI50 [2]	TGI [2]	GI50 [3]	TGI [3]	GI50 [4]	TGI [4]	GI50 [5]	TGI [5]	GI50 [6]	TGI [6]	GI50 [7]	TGI [7]	GI50 [8]	TGI [8]	GI50 [9]	TGI [9]	GI50 [10]	TGI [10]
C/C=C(/C)C(=O)OC1C=C(CO)C(=O)C(OC(=O)/C(C)=C\C)C1C(C)C (configuration not stated)	2.41 µM	6.01 µM	0.751 µM	1.9 µM	1.25 µM	2.94 µM	0.823 µM	2.75 µM	0.416 µM	2.16 µM	0.337 µM	1.37 µM	0.46 µM	1.86 µM	0.315 µM	3.69 µM	1.82 µM	3.47 µM		
O=C(N/N=C/c1cc2ccccc2c2ccccc12)c1cc(O)c(O)c(O)c1	4.47 µM	28.4 µM	2.7 µM	10.1 µM	3.8 µM	18 µM	3.14 µM	10.9 µM	3.68 µM	19.7 µM	7.47 µM	46.1 µM	3.22 µM	25.4 µM	3.72 µM	> 100 µM	4.25 µM	15.9 µM	2.96 µM	12.4 µM
O=c1cccc(C#CCCCCOC2CCCO2)o1 (configuration not stated)	17.8 µM	56.2 µM	15.4 µM	51.5 µM	6.81 µM	> 100 µM	16.1 µM	> 31.1 µM	8.73 µM	> 100 µM	2.93 µM	63.7 µM	19.5 µM	61.4 µM	20.4 µM	> 100 µM	12.7 µM	> 50.4 µM	8.96 µM	> 56.7 µM
C=CC(=O)Nc1cc2c(Nc3ccc(OCc4ccccn4)c(Cl)c3)ncnc2cc1OCCN1CCOCC1	6.56 µM	> 83.6 µM	2.17 µM	34.2 µM	4.28 µM	> 100 µM	6.19 µM	> 100 µM		> 100 µM	2.15 µM	> 27.6 µM	2.49 µM	14.9 µM	2.62 µM	> 100 µM	6.11 µM	37.5 µM	2.99 µM	20.7 µM
